US6994983B2, “Kits for determination of thromboxane B2 metabolite and optimizing aspirin dosage” (Esoterix, Inc. Coagulation, priority 1999, dated 2006)
Where “and” joins values, the source holds several entries; their conditions need not be identical. Equal values may be shown once.

Assays:
[1] = in vivo; cited from earlier work
[2] = cited from earlier work
[3] = test system: 11-dehydro thromboxane B2; experiment: Urine 11-dehydro thromboxane B2 (PURR) after one-week interventions with purple grape juice, vitamin E and aspirin; format: in vivo, human; conditions: for Mean post-intervention PURR: one week each: purple grape juice controlled daily volumes, mean baseline 1105; for Mean post-intervention PURR / % Change of PURR vs mean baseline: vitamin E 400 international units per day, aspirin 650 mg per day; for % Change of PURR vs mean baseline: one week each: purple grape juice; for effect upon urinary excretion of 11-dehydro thromboxane B2: one-week interventions, in words
Experimental: 11-dehydro thromboxane B2, a stable metabolite of platelet-specific cyclooxygenase activity, in urine specimens from 29 individuals was measured. Participants were instructed to drink controlled daily volumes of purple grape juice, 400 international units per day of vitamin E, and 650 mg per day of aspirin. Each intervention was given in one-week intervals separated by a one-week washout period. The metabolite was measured in baseline, post-intervention, and post-washout urine specimens and the results were expressed as platelet urinary response ratios (PURR) based upon pg 11-dehydrothromboxane B2/mg creatinine.

[4] = smokers after partial ileal bypass surgery reporting even infrequent aspirin use; 45.2% with no aspirin use; cited from earlier work
serum TXB2 = conditions: 3 mg of aspirin per day, healthy volunteers; cited from earlier work
[5] = test system: platelet suppression response; conditions: patients on aspirin therapy; cited from earlier work
11-dehydro TXB2 [6] = experiment: 11-dehydro TXB2 in random urine of aspirin users and non-users (acetylcholinesterase-linked immunoassay); format: in vivo, human; conditions: 45 people taking at least 81 mg/day; non-aspirin users 2080
Experimental: Random urine specimens were collected from 65 individuals who had avoided aspirin for at least two weeks and from 45 individuals who were taking 81 or 325 mg/day by prescription. Each specimen was assayed for 11-dehydro-TXB2. Specimens were assayed at two dilutions using acetylcholinesterase-linked immunoassay. The results were tested for parallelism and averaged. Urine creatinine was assayed using the Jaffe picrate reaction. To normalize for urinary output, results were expressed in pg 11-dehydro TXB2/mg creatinine. Results of all populations were compared using the student t-test. Within-day variation is 30% and day-to-day variation 20%.
11-dehydrothromboxane B2 (11-de-H-TXB2), a stable metabolite of platelet activation was measured in random urine specimens from 65 people who were not taking aspirin and 45 who were taking at least 81 mg/day. The means for non-aspirin users was 2080 pg 11-de-H-TXB2/mg creatinine, and for aspirin users was 523, p.<0.0000.1. Receiver-operating characteristic analysis yields an optimum decision point of 1000 pg 11-de-H-TXB2 in random urine may be used to document aspirin's platelet-suppressive effects and to identify individuals who may not achieve antithrombotic benefits.

platelet aggregation [7] = conditions: intermittent claudication, 100 mg aspirin/day, at any given time; cited from earlier work
platelet reactivity = conditions: cited from earlier work
11-dehydro TXB2 [8] = experiment: Crossover study: urine 11-dehydro TXB2 before and 24 hours after one 81 or 325 mg aspirin tablet in 24 healthy individuals; format: in vivo, human; conditions: for mean reduction of 11-dehydro TXB2 / PURR: healthy non-aspirin users
Experimental: (§1) In a crossover study, 24 healthy individuals who had avoided aspirin for a minimum of 10 days collected random baseline urine specimens. They then took one 81 or 325 mg tablet at 8:00 a.m. and collected a second urine specimen 24 hours after the aspirin was taken. Following a two-week washout period dosages were reversed and another baseline and 24-hours post-aspirin specimen was collected.
as §1, with “study, twenty-four” for “study, 24”, “of ten” for “of 10”, “8:00 AM” for “8:00 a.m.”, “a 2-week” for “a two-week”

[9] = single dose of 325 mg; cited from earlier work
platelet aggregation [10] = conditions: cited from earlier work
11-dehydro TXB2 [11] = experiment: Platelet urinary response ratio (PURR), aspirin therapy vs non-users, reformulated buffer; format: in vivo, human
From the text: The PURRs generated in the 11-dehydro thromboxane B2 assay in the present example were higher than those generated in subsequent studies. The average reduction after the investigators initial assay was 60%. This change was a result of a reformulation of the reagent buffer. Reformation of the buffer was made by the supplier, Cayman Chemical Corporation. The initial buffer was thought to be a phosphate saline buffer. The reformatted buffer is an alpha diethanolamine buffer. […] The buffer change was made to convert any lactone form present in the same urine to the free acid form of the thromboxane. The current procedure requires a two-hour pre-incubation of the urine sample in the diethanolamine buffer in order to allow for the conversion of the forms before pipetting to the plate. The new decision point for the assay is 400 PURR units, down from the original 1000.
To normalize for urinary output, results are expressed as platelet urinary response ratio (PURR) based upon pg 11-dehydro TXB2/g creatinine. Results of all populations were compared using the student t-test.

[12] = patients with prior acute myocardial infarction or stroke; cited from earlier work
[13] = in vivo; cited from earlier work; remark: listed apart in the source

CCCCCC(O)C=CC1OC(=O)CC(O)C1CC=CCCCC(=O)O (stereo not shown) [11-dehydro TXB2, 11-dehydro thromboxane B2]
plasma half-life [1]: 45 min

CC(=O)Oc1ccccc1C(=O)O [Aspirin, acetyl salicylic acid]
reduction of the morning peak of infarction ([2]; between 4 and 10 a.m., 325 mg every other day): 59.3% | mean reduction in the incidence of first myocardial infarction ([2]; healthy men, 325 mg every other day, vs placebo): 44.8% | thrombotic events prevented, average ([2]; healthy men): four | Mean post-intervention PURR [3]: 379.7 PURR | % Change of PURR vs mean baseline [3]: −65.6% | effect upon urinary excretion of 11-dehydro thromboxane B2 [3]: large and statistically significant effect | overall mortality rate [4]: 10.4% | reduction of serum TXB2 levels compared to placebo (serum TXB2): 39% | individuals with aspirin resistance / less than adequate platelet suppression response [5]: up to 20% | mean 11-de-H-TXB2 in random urine of aspirin users (11-dehydro TXB2 [6]): 523 pg 11-de-H-TXB2/mg creatinine | males with complete inhibition of aggregation (platelet aggregation [7]): 40% | subjects with immediate suppression of platelet reactivity (platelet reactivity; 500 mg three times per day, upon initial administration): 90% | secondary aspirin non-responders with myocardial infarct, repeat stroke, or vascular death (platelet reactivity; 24-month period following discharge): 40% | remaining subjects with major endpoints (platelet reactivity; 114 remaining subjects, 24-month period): 4.4% | % Inhibition (81) (11-dehydro TXB2 [8]; 81 mg aspirin, urine 11-dehydro TXB2 24 hours post-dose vs baseline, individual subjects 3, 8, 12, 14, 17, 18, 24 with weak response): 60% and 78% and 46% and 48% and 70% and 17% and 10% | mean reduction of 11-dehydro TXB2 / PURR (11-dehydro TXB2 [8]; 81 mg/day): 68% | % Inhibition (325) (11-dehydro TXB2 [8]; 325 mg aspirin, urine 11-dehydro TXB2 24 hours post-dose vs baseline, individual subjects 3, 8, 12, 14, 17, 18, 24 with weak response): 44% and 40% and 82% and 83% (2×) and 46% and 38% | mean reduction of 11-dehydro TXB2 / PURR (11-dehydro TXB2 [8]; 325 mg/day): 76% | individuals with a less than 50% response to either 81 mg or 325 mg of aspirin (11-dehydro TXB2 [8]; crossover study, seven individuals): 30% | duration of effect on platelet laboratory assays [9]: six to ten | patients with only partial inhibition of platelet aggregation (platelet aggregation [10]; atrial fibrillation, 325 mg enteric coated aspirin per day): seven of 17 | patients with restoration of platelet aggregation (aspirin resistance) (platelet aggregation [10]; previous ischemic stroke, escalation to 1300 mg/day): 8.2% | Mean PURR, aspirin therapy (11-dehydro TXB2 [11]; 81 to 325 mg/day, N 98, aspirin non-users 1147): 297 PURR units | individuals identified as potential non-responders (11-dehydro TXB2 [11]; aspirin users, decision points 400 / 500 pg 11-dehydro-TXB2/mg creatinine): 13% | new thrombotic events prevented [12]: up to 40 per thousand treated | relative risk for hemorrhagic stroke [13]: 4 × | relative risk of ischemic stroke [13]: 1.6 ×

Vitamin E
Mean post-intervention PURR [3]: 1293.1 PURR | % Change of PURR vs mean baseline [3]: +14.3% | effect upon urinary excretion of 11-dehydro thromboxane B2 [3]: no measurable effect
